Laboratory results: the supplement of paper PMC4314810
± gives the standard deviation of the averaged measurements.

The sequences below were run on MCF7 (assay: HRG-induced Akt activation (dPAkt = log2 pAkt/Akt HRG-stimulated minus log2 pAkt/Akt basal) (log2 ratio difference); higher = stronger HRG-induced Akt(T308) phosphorylation). Conditions: miRNA mimic concentration 10 nM; time after transfection 72 h; heregulin 10 ng/ml; stimulation time 1 h.
Outline: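 MCF7 cells were plated […] in 96-well plates and transfected in two biological replicates with a library of 879 miRNA mimics (10 nM final) using Lipofectamine RNAiMax; 72 h later they were stimulated for 1 h with 10 ng/ml heregulin-beta1 or left unstimulated. After fixation in 4% PFA, phospho-Akt(T308) and total Akt were measured by In-Cell Western on an Odyssey, with signals corrected for column-wise fixation decay. Heregulin-induced Akt activation is the stimulated minus unstimulated value of the log ratio of phospho-Akt to total Akt, averaged over replicates. That log ratio is log2(pAkt/Akt).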

Sequence | HRG-induced Akt activation (log2)
UAGGUAGUUUCAUGUUGUUGGG | 1.86 ± 0.1
CACUCAGCCUUGAGGGCACUUUC | 0.664 ± 0.32
UCCCUGAGACCCUAACUUGUGA | 1.35 ± 0.79
AAGACGGGAGGAAAGAAGGGAG | 1.22 ± 0.24
AGGGACGGGACGCGGUGCAGUG | 1.15 ± 0.12
AAGUGAUCUAAAGGCCUACAU | 1.67 ± 0.14
AGGCGGAGACUUGGGCAAUUG | 2.43 ± 0.29
UUGAAAGGCUAUUUCUUGGUC | 2.39 ± 0.036
CUCUUGAGGGAAGCACUUUCUGU | 2.16 ± 0.45
UUACAGUUGUUCAACCAGUUACU | 1.44 ± 0.019
CGCAGGGGCCGGGUGCUCACCG | 1.59 ± 0.09
AUGAUCCAGGAACCUGCCUCU | 2.49 ± 0.056
CGGGUGGAUCACGAUGCAAUUU | 2.37 ± 0.063
GGAGAAAUUAUCCUUGGUGUGU | 0.932 ± 0.022
CGGCAACAAGAAACUGCCUGAG | 1.46 ± 0.68
AGGCUGCGGAAUUCAGGAC | 1.56 ± 0.23
CAAGCUCGUGUCUGUGGGUCCG | 0.995 ± 0.35
UUCACAGUGGCUAAGUUCUGC | 1.73 ± 0.061
UAAGUGCUUCCAUGUUUUAGUAG | 1.08 ± 0.1
GAUUGCUCUGCGUGCGGAAUCGAC | 1.24 ± 0.29
AAAAUGGUGCCCUAGUGACUACA | 1.9 ± 0.43
UCAGGCUCAGUCCCCUCCCGAU | 1.36 ± 0.046

Sequence | HRG-induced Akt activation (log2)
CGGCUCUGGGUCUGUGGGGA | 1.13 ± 0.17
GGCUACAACACAGGACCCGGGC | 1.88 ± 0.32
CAUCAUCGUCUCAAAUGAGUCU | 1.91 ± 0.32
ACCGUGGCUUUCGAUUGUUACU | 1.58 ± 0.11
ACUCAAAAUGGGGGCGCUUUCC | 1.51 ± 0.055
UAGCAAAAACUGCAGUUACUUU | 1.86 ± 0.15
AGGGAUCGCGGGCGGGUGGCGGCCU | 1.03 ± 0.13
AAGCCCUUACCCCAAAAAGUAU | 1.73 ± 0.12
CAGGUCGUCUUGCAGGGCUUCU | 1.44 ± 0.68
UGCCCUAAAUGCCCCUUCUGGC | 1.36 ± 0.27
ACUGGACUUGGAGUCAGAAGG | 1.47 ± 0.21
UGUAAACAUCCUCGACUGGAAG | 1.22 ± 0.25
CAAACCACACUGUGGUGUUAGA | 1.09 ± 0.76
UGGUGGGCCGCAGAACAUGUGC | 1.74 ± 0.035
CAAAGUGCUGUUCGUGCAGGUAG | 1.46 ± 0.35
AAAACGGUGAGAUUUUGUUUU | 1.75 ± 0.2
UUGAGAAUGAUGAAUCAUUAGG | 1.82 ± 0.5
AAAGUUCUGAGACACUCCGACU | 1.35 ± 0.082
ACUUACAGACAAGAGCCUUGCUC | 1.68 ± 0.16
CCUGUUGAAGUGUAAUCCCCA | 1.21 ± 0.058
AGCUUCUUUACAGUGCUGCCUUG | 1.68 ± 0.2
UAGCACCAUUUGAAAUCAGUGUU | 1.47 ± 0.15

Sequence | HRG-induced Akt activation (log2)
AUCGUGCAUCCUUUUAGAGUGU | 1.47 ± 0.099
AAAAACUGAGACUACUUUUGCA | 1.33 ± 0.15
GUAGAUUCUCCUUCUAUGAGUA | 1.35 ± 0.17
AGACUUCCCAUUUGAAGGUGGC | 1.52 ± 0.18
UGAGUACCGCCAUGUCUGUUGGG | 1.98 ± 0.09
UGAGGUAGUAGUUUGUACAGUU | 1.47 ± 0.12
GACACGGGCGACAGCUGCGGCCC | 1.03 ± 0.89
UACUGCAGACGUGGCAAUCAUG | 1 ± 0.63
UGUCUGCCCGCAUGCCUGCCUCU | 2.32 ± 0.13
CUGGGAUCUCCGGGGUCUUGGUU | 2 ± 0.076
AACCAUCGACCGUUGAGUGGAC | 0.92 ± 0.14
UAAGGUGCAUCUAGUGCAGUUAG | 2.1 ± 0.024
AUUCUAAUUUCUCCACGUCUUU | 1.44 ± 0.29
CUGUUGCCACUAACCUCAACCU | 1.07 ± 0.11
CUGCCAAUUCCAUAGGUCACAG | 1.47 ± 0.11
UAACUGGUUGAACAACUGAACC | 1.93 ± 0.54
CUCCCACAUGCAGGGUUUGCA | 1.81 ± 0.022
CCAAUAUUGGCUGUGCUGCUCC | 1.32 ± 0.36
ACGUUGGCUCUGGUGGUG | 1.17 ± 0.014
CACAUUACACGGUCGACCUCU | 1.173 ± 0.0052
CUAGUGAGGGACAGAACCAGGAUUC | 1.82 ± 0.032
CUCAGUAGCCAGUGUAGAUCCU | 1.53 ± 0.16

Sequence | HRG-induced Akt activation (log2)
AGAGAAGAAGAUCAGCCUGCA | 1.08 ± 0.5
GCCCCUGGGCCUAUCCUAGAA | 1.25 ± 0.56
UCUGCCCCCUCCGCUGCUGCCA | 1.55 ± 0.069
AAUGGAUUUUUGGAGCAGG | 2.12 ± 0.2
AGGUUGGGAUCGGUUGCAAUGCU | 1.59 ± 0.021
CUUAUCAGAUUGUAUUGUAAUU | 1.87 ± 0.024
AGGUUGACAUACGUUUCCC | 1.43 ± 0.13
AGAUCAGAAGGUGAUUGUGGCU | 1.56 ± 0.3
UGUCUUACUCCCUCAGGCACAU | 1.47 ± 0.054
CUGUACAGGCCACUGCCUUGC | 1.88 ± 0.41
GUGCAUUGCUGUUGCAUUGC | 1.178 ± 0.00052
CCAGUAUUAACUGUGCUGCUGA | 1.55 ± 0.32
AGACCAUGGGUUCUCAUUGU | 1.18 ± 0.43
CGUGUAUUUGACAAGCUGAGUU | 2.29 ± 0.19
UAUAGGGAUUGGAGCCGUGGCG | 1.04 ± 0.064
AUCAUGAUGGGCUCCUCGGUGU | 1.41 ± 0.22
AAAGUGCUUCUCUUUGGUGGGU | 0.92 ± 0.047
GAGGGUUGGGUGGAGGCUCUCC | 1.47 ± 0.36
UUUUCAACUCUAAUGGGAGAGA | 1.48 ± 0.1
CUAUACAACCUACUGCCUUCCC | 1.27 ± 0.16
UCGUGCAUCCCUUUAGAGUGUU | 1.6 ± 0.022
GGAGACGCGGCCCUGUUGGAGU | 1.33 ± 0.052

Sequence | HRG-induced Akt activation (log2)
UGUGCAAAUCUAUGCAAAACUGA | 0.8263 ± 0.0053
AUUCUGCAUUUUUAGCAAGUUC | 1.8 ± 0.078
AGUGGGGAACCCUUCCAUGAGG | 1.94 ± 0.25
ACUUUAACAUGGAAGUGCUUUC | 1.17 ± 0.09
UUUGGCAAUGGUAGAACUCACACU | 1.75 ± 0.06
CAAAAACCACAGUUUCUUUUGC | 0.997 ± 0.23
CAGGGAGGUGAAUGUGAU | 1.71 ± 0.099
CAAAGAAUUCUCCUUUUGGGCU | 1.74 ± 0.013
AAAGUGCAUCCUUUUAGAGUGU | 0.756 ± 0.11
ACUCUUUCCCUGUUGCACUAC | 1.677 ± 0.0095
AACGCCAUUAUCACACUAAAUA | 1.14 ± 0.04
AGGCACCAGCCAGGCAUUGCUCAGC | 1.51 ± 0.2
AACUGGAUCAAUUAUAGGAGUG | 1.79 ± 0.16
UGAAGGUCUACUGUGUGCCAGG | 1.11 ± 0.052
CGGGGUUUUGAGGGCGAGAUGA | 2.25 ± 0.089
AAUUGCACUUUAGCAAUGGUGA | 1.14 ± 0.04
UAUGUGGGAUGGUAAACCGCUU | 2.19 ± 0.34
CAGUGGUUUUACCCUAUGGUAG | 1.91 ± 0.035
